From PMC5412286, “Biosynthesis of α-Glucosidase Inhibitors by a Newly Isolated Bacterium, Paenibacillus sp. TKU042 and Its Effect on Reducing Plasma Glucose in a Mouse Model” (International Journal of Molecular Sciences, 2017)
Marks after values point to notes of the source that are not given here.

Columns and labels:
[1] = molecular target: T1, Saccharomyces cerevisiae α-glucosidase (Saccharomyces cerevisiae, UniProt P53341); test: yeast α-glucosidase inhibition assay; type: biochemical; settings: S. cerevisiae α-glucosidase
T1 construct: purchased Sigma Chemical Co., St. Louis, MO, USA
Procedure: SPP, SHP (shrimp head powder), and NB were used as the sole sources of C/N with concentrations of 1%, 1% and 0.8%, respectively. Fermentation conditions were set at 30 °C, shaking speed of 150 rpm, 100/250 mL for the medium/flask volume ratio, and 1 mL of bacterial seed solution (OD660nm = 0.38). The inhibition against yeast α-glucosidase was then tested and calculated in % (A) or U/mL (B); the growth of Paenibacillus sp. TKU042 was detected at OD660nm (C). […] Saccharomyces cerevisiae α-glucosidase was used to test aGI activity.
All of the isolated strains were incubated in a 250-mL Erlenmeyer flask with 50 mL of the same medium, but without agar. Fermentation was performed at 37 °C and a 150 rpm shaking speed. After 1–4 days of fermentation, the culture was centrifuged at 500 rpm for 10 min to remove the medium residue. The solution was then centrifuged again at 4000 rpm for 20 min to separate the cells from the culture supernatant. The supernatant was then used to test yeast α-glucosidase inhibitory activity. […] The screening of active bacteria was based on the inhibitory activity of the supernatant.
Three sources of C/N (1% SPP, 1% SHP, and 0.8% NB) were used to cultivate Paenibacillus sp. TKU042; conditions were set at 30 °C, a shaking speed of 150 rpm and a 100/250 mL medium/flask volume ratio for nine days. […]

[2] = molecular target: Rat α-glucosidase; test: rat intestinal α-glucosidase inhibition assay; type: biochemical
Procedure: To determine rat intestinal α-glucosidase inhibition, the techniques from the previous report were followed, with modifications. One hundred mg of rat-intestinal acetone powder was suspended in 4 mL of 0.1 mol/L potassium phosphate buffer (NPB), pH 7. The suspension was sonicated several times for 12 s at 4 °C and then centrifuged for 20 min at 10,000× g. The residues were twice suspended with 3 mL of 0.1 mol/L NPB at pH 7, as described above. The resulting supernatant was mixed together and dialyzed for 12 h at 4–6 °C, and then used for the assay. The α-glucosidase, sample solutions and buffer were pre-mixed at volumes of 50, 50 and 100 μL, respectively. After pre-incubation at 37 °C for 20 min, the reaction started when 50 μL of p-nitrophenyl glucopyranoside (10 mmol/L) was added to the mixture. After 20 min at 37 °C, 100 μL Na2CO3 solution (1 mol/L) was added to terminate the reaction. The absorbance of the final mixture was measured at 410 nm and used to calculate inhibition (%) using the following equation: α-glucosidase inhibitory activity (%) = (A − B)/A × 100 where “A” is the absorbance of the control (buffer was used instead of sample with the same volume) and “B” is the absorbance of the final mixture containing the sample and α-glucosidase. The IC50 value was defined and determined as per the previous study. […]

[3] = test system: ICR mice; test: diarrhea / ill effects in the sucrose tolerance test; settings: FNB 100, 200 or 400 mg, acarbose 12.5 mg, FNB (100, 200 mg) with acarbose 12.5 mg
Procedure: A sucrose solution was orally administered at 3 g/kg bw and blood was sampled and measured after 0.5, 1, 1.5 and 2 h.

[4] = DPPH radical scavenging activity assay
Procedure: One hundred and twenty microliters of each sample (at different concentrations) was mixed with 30 µL of a methanolic solution containing 0.75 mM DPPH radicals in the well of a plate with 96 wells. The mixture was kept in the dark for 30 min before absorbance at 517 nm was measured. Radical scavenging activity was calculated using the following formula: Antioxidant activity (%) = [(AB − AA)/AB] × 100 where AB and AA stand for absorption of the blank sample (t = 0 min) and absorption of the tested sample solution (t = 30 min), respectively. α-Tocopherol dissolved in MeOH was also analyzed as a control.

T1 sequence (P53341 whole entry): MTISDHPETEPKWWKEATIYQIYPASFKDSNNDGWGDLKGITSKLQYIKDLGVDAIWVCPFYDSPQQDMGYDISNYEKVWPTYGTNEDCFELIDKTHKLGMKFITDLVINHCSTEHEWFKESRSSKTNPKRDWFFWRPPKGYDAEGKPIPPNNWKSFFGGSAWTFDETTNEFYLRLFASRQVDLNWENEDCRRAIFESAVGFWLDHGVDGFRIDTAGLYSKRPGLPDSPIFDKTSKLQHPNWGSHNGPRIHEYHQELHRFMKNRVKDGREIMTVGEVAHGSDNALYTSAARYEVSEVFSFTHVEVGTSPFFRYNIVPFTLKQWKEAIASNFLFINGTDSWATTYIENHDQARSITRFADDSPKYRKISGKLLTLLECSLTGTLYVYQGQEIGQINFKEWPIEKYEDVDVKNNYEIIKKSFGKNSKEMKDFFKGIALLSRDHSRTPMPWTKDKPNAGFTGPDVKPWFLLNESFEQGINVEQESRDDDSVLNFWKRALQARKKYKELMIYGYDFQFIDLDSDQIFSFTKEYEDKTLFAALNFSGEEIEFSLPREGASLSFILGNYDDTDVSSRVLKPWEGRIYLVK

| SMILES | Maximum Inhibitory Activity [1] [%] | IC50 [2] | Maximum Inhibitory Activity [2] [%] | ill effects (diarrhea), in words [3] | antioxidant activity IC50 (DPPH radical scavenging) ([4]; DPPH, 30 min, 517 nm) [mg/mL] | antioxidant activity achieved (DPPH) ([4]; maximum activity) |
| --- | --- | --- | --- | --- | --- | --- |
| C[C@H]1O[C@H](O[C@H]2[C@H](O)[C@@H](O)[C@@H](O[C@H]3[C@H](O)[C@@H](O)C(O)O[C@@H]3CO)O[C@@H]2CO)[C@H](O)[C@@H](O)[C@@H]1N[C@H]1C=C(CO)[C@@H](O)[C@H](O)[C@H]1O (stereo partly drawn) [acarbose] | 63 ± 2.5 | 107 ± 2.5 ^c µg/mL | 89 ± 2.4 | No ill effects |  |  |
| Cc1c(C)c2c(c(C)c1O)CC[C@@](C)(CCC[C@H](C)CCC[C@H](C)CCCC(C)C)O2 [α-Tocopherol] |  |  |  |  | 0.0247 ± 0.0012 | approximately 100% |
